Assays:
[1] = system: small human bronchi; test: Relaxation of small human bronchi, with and without 2-APB pre-treatment
Description: More recent studies have lead to the belief that they instead block the TRPC receptor.

[2] = system: human isolated airway preparations (bronchus) contracted with LTD4; test: LTD4-induced contraction of isolated human bronchus preparation (force transducer), remaining contraction after exposure to test substance; conditions: for effectiveness in relaxing broncho-constriction in comparison to capsazepine: LTD4 as broncho-contracting agent, test system of Example 1
Protocol: Dissection and mounting of lung tissue preparations. Lung tissue was obtained from patients undergoing lobectomia or pulmectomia due to lung carcinoma. The tissue was placed in a dissection chamber continuously perfused with 10 ml min^−1 of a physiological saline solution (PSS) at room temperature. An airway was identified in the cut part of the lobe, and a bronchus of 10-20 mm length and 1-2 mm diameter was obtained. The bronchus was cut into rings of a width of about 2-3 mm. Each bronchial ring was cleaved to obtain an about rectangular oblong preparation, one end of which was tied to a small steel hook connected to a force transducer, while the other end of the preparation was attached to a fixed hook. This is followed by a period of adjustment, as described below. The preparation was mounted in an atmosphere containing […] and 6% of CO2.
Experimental chamber. The experimental chamber has a a volume of 5 ml. It is perfused with PSS at a rate of 3 ml min^−1. Two preparations are mounted in the chamber, and measurements on them are performed in parallel. For mechanical tensioning each force transducer (AME 801, SensoNor A/S, Horten, Norway) is connected to a micrometer screw. The substances to be tested, the reference substance (capsazepine), and transmitter (LTD4) are injected upstream of the preparation(s).
Materials. PPS (physiological saline solution, in mM): NaCl, 117; KCl, 4.87; MgSO4, 0.60; NaHCO3, 25.0; CaCl2, 1.60; glucose, 5.23. The solution is saturated with a mixture of 94% oxygen and 6% carbon dioxide, giving a pH of 7.40±0.05 in the experimental chamber. All substances are prepared as stock solution dissolved in the vehicles ethanol or DMSO. Leukotriene D4 (LTD4; Keyman Ltd.): 10 μl of a 100 μM ethanol stock solution. Capsazepine (Sigma Aldrich): 10 μl of a 0.1 M ethanol stock solution. Substance to be tested: 10-100 μl of a 0.01-0.1 M ethanol or DMSO stock solution. Solution for establishing the passive tension level: calcium-free PSS+2 mM EGTA+20 mM caffeine. To exclude effects by the test substance vehicle, ethanol or DMSO, respectively, were added during the entire experiment except during the presence of test substance.
An exemplary test is shown in FIG. 1 in which capital letters indicate interference with the test system. The material for the preparation was a bronchus (inner diameter about 1 mm) from a occasional smoker but with the epithelium intact. Adjustment and stretch. After mounting as described above the preparation is allowed to adjust with a low passive tone in the experimental chamber. The composition of the gas is changed to 94% (v/v) of oxygen. After a short adjustment period, PSS with 10 nM LTD4 is added to the experimental chamber upstream of the preparation (A). The preparation is stretched repeatedly (B) until it exerts a contraction force of around 150 mg. When the contraction has levelled off, leukotriene-free solution is administered for 1 hour (C), resulting in a relaxation. A second injection of 10 nM LTD4 (D) makes the preparation return to the tensioned state. At the peak tension leukotriene-free solution is again administered (E). After a third injection of 10 nM LTD4 (F) the preparation returns to the tensioned state. At the peak, PSS with 10 μM capsazepine (G) is added, resulting in a relaxation. After 1 h exposure to capsazepine, LTD4 is added, resulting in a contraction (H). In comparison with the control LTD4 contraction (F), a substantially weaker contraction is now observed (H). […]

[3] = system: guinea pig airway preparations; conditions: cited from earlier work
[4] = target: VR1 (Rattus norvegicus, UniProt O35433); conditions: capsaicin-induced effects in rodents; cited from earlier work
Sequence of VR1 (O35433 whole entry): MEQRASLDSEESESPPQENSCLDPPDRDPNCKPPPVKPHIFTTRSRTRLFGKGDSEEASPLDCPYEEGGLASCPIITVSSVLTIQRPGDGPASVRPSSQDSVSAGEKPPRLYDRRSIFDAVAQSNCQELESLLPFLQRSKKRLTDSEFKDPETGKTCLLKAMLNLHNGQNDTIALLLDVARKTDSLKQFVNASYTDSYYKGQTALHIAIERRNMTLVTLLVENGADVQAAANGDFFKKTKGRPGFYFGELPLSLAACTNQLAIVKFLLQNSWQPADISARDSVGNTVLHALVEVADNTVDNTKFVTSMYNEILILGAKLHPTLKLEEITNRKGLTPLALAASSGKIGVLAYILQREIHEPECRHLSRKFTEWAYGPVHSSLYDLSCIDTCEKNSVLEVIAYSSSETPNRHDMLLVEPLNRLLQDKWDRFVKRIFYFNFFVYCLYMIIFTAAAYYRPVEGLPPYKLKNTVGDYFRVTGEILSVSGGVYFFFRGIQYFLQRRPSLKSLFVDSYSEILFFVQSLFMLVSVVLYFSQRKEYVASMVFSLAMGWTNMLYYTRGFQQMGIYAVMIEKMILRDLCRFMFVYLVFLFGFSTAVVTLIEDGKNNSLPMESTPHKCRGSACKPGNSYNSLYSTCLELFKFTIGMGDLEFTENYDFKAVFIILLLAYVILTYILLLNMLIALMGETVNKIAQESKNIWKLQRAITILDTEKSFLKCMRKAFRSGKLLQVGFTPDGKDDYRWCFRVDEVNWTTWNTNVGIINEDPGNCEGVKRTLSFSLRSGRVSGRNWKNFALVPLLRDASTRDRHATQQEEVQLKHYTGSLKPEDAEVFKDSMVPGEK

## NCCOB(c1ccccc1)c1ccccc1 [2-APB, 2-amino-ethoxydiphenylborate]
[1]
  relaxation of small human bronchi: relaxes small human bronchi

## C=C(C)[C@]12C[C@@H](C)[C@@]34O[C@](Cc5ccccc5)(O[C@@H]1[C@@H]3C=C(COC(=O)Cc1cc(I)c(O)c(OC)c1)C[C@]1(O)C(=O)C(C)=C[C@@H]41)O2 [I-RTX, iodo-resiniferatoxin]
[2]; human bronchial preparations, found by the present inventors
  inhibition of leukotriene-induced bronchoconstriction: did not inhibit
[3]
  potency of inhibition of capsaicin-induced bronchoconstriction relative to capsazepine: 10-30 times
[4]
  VR1 antagonist potency relative to capsazepine: at least 40 times

## Oc1cc2c(cc1O)CN(C(=S)NCCc1ccccc1)CCC2 [RES 1-83]
[2]
  effectiveness in relaxing broncho-constriction in comparison to capsazepine: substantially less effective

## Oc1cc2c(cc1O)CN(C(=S)NCc1ccc(C(F)(F)F)cc1)CCC2 [RES 3-22]
[2]
  effectiveness in relaxing broncho-constriction in comparison to capsazepine: about equally effective

## Oc1c(Cl)cc2c(c1Cl)CCCN(C(=S)NCCc1ccc(Cl)cc1)C2 [RES 5-21]
[2]
  effectiveness in relaxing broncho-constriction in comparison to capsazepine: substantially more effective

## Oc1cc2c(cc1O)CN(C(=S)NCCc1ccc(Cl)cc1)CCC2 [capsazepine]
[2]; 10 μM capsazepine, 1 h exposure, 10 nM LTD4, bronchus from occasional smoker
  remaining contraction (test force) relative to that caused by the control force: about 55%

## Cn1c(=O)c2[nH]cnc2n(C)c1=O [theophylline]
[1]; pre-treatment with 2-APB
  relaxation after pre-treatment of small human bronchi with 2-APB: not reduced
